Assays:
[1] = tested on: LPS-induced acute lung injury mice; assay: LPS-induced acute lung injury; format: in vivo, C57BL/6J mice
Protocol: Male mice C57BL/6J aged 6-8 weeks and weighing 18-22 g were selected for the study. After fixing the mice, 50 μl of PBS was injected into the airways of the mice under direct laryngoscopic vision to form a control group, and 5 mg/kg of LPS (E.coil) was dissolved in 50 μl of PBS and dripped to form a model group. The experiments were divided into […], each having 6 mice, namely, NS group (control group, airway drip of 50 μl PBS), LPS group (model control group, airway drip of 50 μl LPS), LPS+10 mg/kg group (airway drip of 50 μl LPS and given 10 mg/kg TJ01-013 treatment), LPS+20 mg/kg group (airway drip of 50 μl LPS and given 20 mg/kg TJ01-013 treatment), LPS+30 mg/kg group (airway drip of 50 μl LPS and given 30 mg/kg TJ01-013 treatment), LPS+Sivelestat group (Positive control group, airway drip of 50 μl LPS and given 5 mg/kg Sivelestat treatment). All groups were administered […] by intraperitoneal injection in a volume of 200 μl 1 h and 7 h after airway drip, and the mice were euthanized 24 h later, bronchoalveolar lavage fluid (BALF) was taken, and the levels of inflammatory factors in the bronchoalveolar lavage fluid were detected and the changes in the transcriptional levels of tissue-associated inflammatory factors were observed. • (2) taking and observing of Bronchoalveolar lavage fluid (BALF)
Use chloral hydrate intraperitoneal injection to make mice die of rapid overdose anesthesia, place mice in supine position on the dissection table, fix the limbs, disinfect the skin of the neck of the mice with 75% ethanol, incise the skin along the midline of the neck, bluntly separate the subcutaneous connective tissues and muscles with hemostatic forceps, expose the trachea, separate connective tissues on both sides of the trachea and between the trachea and the esophagus, and free the trachea. Two surgical sutures about 20 cm long were threaded between the trachea and esophagus. A 24G intravenous cannula needle was inserted at a 30-degree angle from the connective tissue membrane between the thyroid cartilage and the cricoid cartilage, and the intravenous cannula needle was delivered in the direction of the tracheal eminence. A surgical suture placed between the tracheo-esophageal was ligated at the entry of the cannula into the trachea and at the distal end of the cannula, respectively, and tied as tightly as possible to secure the cannula and trachea. 0.8 ml of PBS was aspirated with a 1 ml syringe, and the syringe was connected to the inlet end of the intravenous cannula needle, and PBS was slowly injected into the trachea, stayed for 30 seconds and then was withdrawn back, and a milky white frothy liquid withdrawn back was visible, and the lavage was repeated three times, and the liquid was centrifuged at 1500 rpm/min for 10 min, and the supernatant was used for cytokine assay, and the cell precipitates were coated after resuspending with PBS for Giemsa staining and sorting and counting.
The levels of inflammatory factors (inflammatory factors including IL-6, CXCL1, CXCL2, etc.) in BALF supernatant were detected according to the instructions of the ELISA test kit.
The obtained cDNA was amplified on a 96-well PCR plate using a LightCycler 480 system, and the gene level was determined by using glyceraldehyde 3-phosphate dehydrogenase (GAPDH) as an internal standard.

HGPS-MSC = assay: Senescence of HGPS patient derived mesenchymal stem cells; format: cell-based, human; settings: 10 μM
Protocol: Mesenchymal stem cells HGPS-MSC differentiated from pluripotent stem cells (iPSC) of patients with Hutchinson-Gilford Progeria Syndrome (HGPS) were taken for culture, and the experiment was divided into three groups, namely, young cells cultured for 7 generations, labeled as Con-Y; senescent cells cultured for 12 generations, labeled as Con-O; and the administration group to which 10 μM of TJ01-013 was added during the process of culture, similarly cultured up to the 12th generation, labeled as Con-O+TJ01-013; the drug administration group to which 10 μM positive drug Ionafarnib was added during the process of culture, similarly cultured up to the 12th generation, and labeled as Con-O+ Ionafarnib; after the end of the treatment, all the cells were placed under the microscope to observe the morphology of the cells, and the proportion of SA-β-gal+ cells was counted. The levels of DNA damage marker γ-H2AX and heterochromatin modification H3K9me3 after TJ01-013 treatment and Ionafarnib treatment were detected by immunofluorescence technique (the specific procedure was described previously).

[2] = TJ01-013 10, 20, 30 mg/kg, Sivelestat 5 mg/kg, FIG. 26
[3] = concentration-dependent for TJ01-013, FIG. 27

For `O=C(O)C[S+]([O-])c1cc(NS(=O)(=O)c2ccc(Br)cc2)c2ccccc2c1O` (stereo not shown) [I-1], the “number of macrophages in alveolar lavage fluid” value ([1]; FIG. 25) was “no significant effect”, the “number of neutrophils in alveolar lavage fluid” value ([1]; FIG. 25) was “significantly reduce” and the “total number of cells in alveolar lavage fluid, compared with positive control Sivelestat sodium” value ([1]; TJ01-013 20 mg/kg, FIG. 25) was “decreased to a better extent”. The “CXCL1 level in alveolar lavage fluid (ELISA)” value [1, 2] was “significantly decreased in a concentration-dependent manner”, the “CXCL2 level in alveolar lavage fluid (ELISA)” value [1, 2] was “significantly decreased in a concentration-dependent manner” and the “IL-6 level in alveolar lavage fluid (ELISA)” value [1, 2] was “significantly decreased in a concentration-dependent manner”. For the same compound, the “total number of cells in alveolar lavage fluid” value ([1]; after LPS, intraperitoneal TJ01-013, FIG. 25) was “decreased”, the “CXCL1 transcript level in lung tissue” value [1, 3] was “significantly decreased” and the “CXCL2 transcript level in lung tissue” value [1, 3] was “significantly decreased”. For the same compound, the “IL-6 transcript level in lung tissue” value [1, 3] was “significantly decreased”, the “percentage of SA-β-gal+ cells” value (HGPS-MSC; 12th generation, vs Con-O, FIG. 54) was “significantly decreased” and the “level of DNA damage marker γ-H2AX” value (HGPS-MSC; FIG. 55) was “significantly reduced”. The “expression level of heterochromatin-modified H3K9me3” value (HGPS-MSC; FIG. 56) was “restored its expression level to some extent”.

— patent US20260027073A1, “USE OF SMALL-MOLECULE COMPOUND HAVING NAPHTHYLAMINE STRUCTURE” (HANGZHOU PHECDAMED CO., LTD., priority 2023, published 2026)
